Tests used:
Format in all cases: in vivo
[1] = tested on: pigweed (Amaranthus retroflexus); test: Test C pre-/postemergence plant response
Method in brief: (§1)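 Application timings covered preemergence and postemergence (1- to 4-leaf plants, 2 to 18 cm), using a non-phytotoxic solvent mixture that included a surfactant. Controlled-environment holding lasted 15 to 25 days before visual scoring, where 100 denotes complete control and 0 no effect.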

[2] = tested on: Italian ryegrass (Lolium multiflorum); test: Test C pre-/postemergence plant response
Method in brief: as §1

[3] = tested on: spring wheat (Triticum aestivum); test: Test C pre-/postemergence plant response
Method in brief: as §1

[4] = tested on: downy bromegrass (Bromus tectorum); test: Test C pre-/postemergence plant response
Method in brief: as §1

[5] = tested on: winter barley (Hordeum vulgare); test: Test C pre-/postemergence plant response
Method in brief: as §1

[6] = tested on: green foxtail (Setaria viridis); test: Test C pre-/postemergence plant response
Method in brief: as §1

[7] = tested on: wild mustard (Sinapis arvensis); test: Test C pre-/postemergence plant response
Method in brief: as §1

[8] = tested on: wild oat (Avena fatua); test: Test C pre-/postemergence plant response
Method in brief: as §1

[9] = tested on: winter wheat (Triticum aestivum); test: Test C pre-/postemergence plant response
Method in brief: as §1

[10] = tested on: canarygrass (Phalaris minor); test: Test C pre-/postemergence plant response
Method in brief: as §1

[11] = tested on: windgrass (Apera spica-venti); test: Test C pre-/postemergence plant response
Method in brief: as §1

[12] = tested on: annual bluegrass (Poa annua); test: Test C pre-/postemergence plant response
Method in brief: as §1

[13] = tested on: blackgrass (Alopecurus myosuroides); test: Test C pre-/postemergence plant response
Method in brief: as §1

[14] = tested on: chickweed (Stellaria media); test: Test B postemergence plant response; settings: Postemergence
Method in brief: (§2)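 Test compounds were applied postemergence to plants 2 to 18 cm tall (1- to 4-leaf stage). After 13 to 15 days in a greenhouse, each species was visually compared with untreated controls and rated 0 (no effect) to 100 (complete control).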

[15] = tested on: winter barley (Hordeum vulgare); test: Test B postemergence plant response; settings: Postemergence
Method in brief: as §2

[16] = tested on: canarygrass (Phalaris minor); test: Test B postemergence plant response; settings: Postemergence
Method in brief: as §2

[17] = tested on: windgrass (Apera spica-venti); test: Test B postemergence plant response; settings: Postemergence
Method in brief: as §2

[18] = Postemergence, 8 g ai/ha, scale 0 to 100, 0 no effect, 100 complete control
[19] = Postemergence, 16 g ai/ha, scale 0 to 100, 0 no effect, 100 complete control
[20] = Postemergence, 31 g ai/ha, scale 0 to 100, 0 no effect, 100 complete control
[21] = Postemergence, 62 g ai/ha, scale 0 to 100, 0 no effect, 100 complete control
[22] = Preemergence, 8 g ai/ha, scale 0 to 100 (0 no effect, 100 complete control)
[23] = Preemergence, 16 g ai/ha, scale 0 to 100 (0 no effect, 100 complete control)
[24] = Preemergence, 31 g ai/ha, scale 0 to 100 (0 no effect, 100 complete control)
[25] = Preemergence, 62 g ai/ha, scale 0 to 100, 0 no effect, 100 complete control
[26] = 31 g ai/ha, scale 0 to 100, 0 no effect, 100 complete control

CCc1cc(-c2ccc(C(F)(F)F)cc2)nn1-c1c(O)cnn(C)c1=O [Compound 11, 4-[5-ethyl-3-[4-(trifluoromethyl)phenyl]-1H-pyrazol-1-yl]-5-hydroxy-2-methyl-3(2H)-pyridazinone]
Plant response rating, Pigweed [1, 18]: 0
Plant response rating, Pigweed [1, 19]: 10
Plant response rating, Pigweed [1, 20]: 10
Plant response rating, Pigweed [1, 21]: 20
Plant response rating, Pigweed [1, 22]: 0
Plant response rating, Pigweed [1, 23]: 0
Plant response rating, Pigweed [1, 24]: 0
Plant response rating, Pigweed [1, 25]: 15
Plant response rating, Ryegrass, Italian [2, 18]: 98
Plant response rating, Ryegrass, Italian [2, 19]: 98
Plant response rating, Ryegrass, Italian [2, 20]: 100
Plant response rating, Ryegrass, Italian [2, 21]: 100
Plant response rating, Ryegrass, Italian [2, 22]: 85
Plant response rating, Ryegrass, Italian [2, 23]: 98
Plant response rating, Ryegrass, Italian [2, 24]: 100
Plant response rating, Ryegrass, Italian [2, 25]: 100
Plant response rating, Wheat, Spring [3, 18]: 65
Plant response rating, Wheat, Spring [3, 19]: 90
Plant response rating, Wheat, Spring [3, 20]: 98
Plant response rating, Wheat, Spring [3, 21]: 98
Plant response rating, Wheat, Spring [3, 22]: 50
Plant response rating, Wheat, Spring [3, 23]: 60
Plant response rating, Wheat, Spring [3, 24]: 75
Plant response rating, Wheat, Spring [3, 25]: 100
Plant response rating, Bromegrass, Downy [4, 18]: 50
Plant response rating, Bromegrass, Downy [4, 19]: 80
Plant response rating, Bromegrass, Downy [4, 20]: 98
Plant response rating, Bromegrass, Downy [4, 21]: 98
Plant response rating, Bromegrass, Downy [4, 22]: 35
Plant response rating, Bromegrass, Downy [4, 23]: 65
Plant response rating, Bromegrass, Downy [4, 24]: 70
Plant response rating, Bromegrass, Downy [4, 25]: 100
Plant response rating, Barley, Winter [5, 18]: 60
Plant response rating, Barley, Winter [5, 19]: 70
Plant response rating, Barley, Winter [5, 20]: 95
Plant response rating, Barley, Winter [5, 21]: 100
Plant response rating, Barley, Winter [5, 22]: 20
Plant response rating, Barley, Winter [5, 23]: 40
Plant response rating, Barley, Winter [5, 24]: 75
Plant response rating, Barley, Winter [5, 25]: 95
Plant response rating, Foxtail, Green [6, 18]: 95
Plant response rating, Foxtail, Green [6, 19]: 98
Plant response rating, Foxtail, Green [6, 20]: 100
Plant response rating, Foxtail, Green [6, 21]: 100
Plant response rating, Foxtail, Green [6, 22]: 100
Plant response rating, Foxtail, Green [6, 23]: 100
Plant response rating, Foxtail, Green [6, 24]: 100
Plant response rating, Foxtail, Green [6, 25]: 100
Plant response rating, Mustard, Wild [7, 18]: 0
Plant response rating, Mustard, Wild [7, 19]: 25
Plant response rating, Mustard, Wild [7, 20]: 25
Plant response rating, Mustard, Wild [7, 21]: 40
Plant response rating, Mustard, Wild [7, 22]: 0
Plant response rating, Mustard, Wild [7, 23]: 0
Plant response rating, Mustard, Wild [7, 24]: 0
Plant response rating, Mustard, Wild [7, 25]: 0
Plant response rating, Oat, Wild [8, 18]: 100
Plant response rating, Oat, Wild [8, 19]: 100
Plant response rating, Oat, Wild [8, 20]: 100
Plant response rating, Oat, Wild [8, 21]: 100
Plant response rating, Oat, Wild [8, 22]: 98
Plant response rating, Oat, Wild [8, 23]: 98
Plant response rating, Oat, Wild [8, 24]: 98
Plant response rating, Oat, Wild [8, 25]: 100
Plant response rating, Wheat, Winter [9, 18]: 90
Plant response rating, Wheat, Winter [9, 19]: 100
Plant response rating, Wheat, Winter [9, 20]: 100
Plant response rating, Wheat, Winter [9, 21]: 100
Plant response rating, Wheat, Winter [9, 22]: 20
Plant response rating, Wheat, Winter [9, 23]: 40
Plant response rating, Wheat, Winter [9, 24]: 100
Plant response rating, Wheat, Winter [9, 25]: 100
Plant response rating, Canarygrass [10, 18]: 65
Plant response rating, Canarygrass [10, 19]: 100
Plant response rating, Canarygrass [10, 20]: 100
Plant response rating, Canarygrass [10, 21]: 100
Plant response rating, Canarygrass [10, 22]: 15
Plant response rating, Canarygrass [10, 23]: 75
Plant response rating, Canarygrass [10, 24]: 98
Plant response rating, Canarygrass [10, 25]: 100
Plant response rating, Windgrass [11, 18]: 95
Plant response rating, Windgrass [11, 19]: 95
Plant response rating, Windgrass [11, 20]: 95
Plant response rating, Windgrass [11, 21]: 95
Plant response rating, Windgrass [11, 22]: 100
Plant response rating, Windgrass [11, 23]: 100
Plant response rating, Windgrass [11, 24]: 100
Plant response rating, Windgrass [11, 25]: 100
Plant response rating, Bluegrass [12, 18]: 0
Plant response rating, Bluegrass [12, 19]: 15
Plant response rating, Bluegrass [12, 20]: 15
Plant response rating, Bluegrass [12, 21]: 20
Plant response rating, Bluegrass [12, 22]: 0
Plant response rating, Bluegrass [12, 23]: 20
Plant response rating, Bluegrass [12, 25]: 30
Plant response rating, Blackgrass [13, 18]: 100
Plant response rating, Blackgrass [13, 19]: 100
Plant response rating, Blackgrass [13, 20]: 100
Plant response rating, Blackgrass [13, 21]: 100
Plant response rating, Blackgrass [13, 22]: 85
Plant response rating, Blackgrass [13, 23]: 90
Plant response rating, Blackgrass [13, 24]: 90
Plant response rating, Blackgrass [13, 25]: 100
Plant response rating, Chickweed ([14]; 16 g ai/ha, scale 0 to 100): 0
Plant response rating, Chickweed [14, 26]: 0
Plant response rating, Chickweed ([14]; 62 g ai/ha, scale 0 to 100): 0
Plant response rating, Chickweed ([14]; 125 g ai/ha, scale 0 to 100): 0
Plant response rating, Barley ([15]; 16 g ai/ha, scale 0 to 100, 0 no effect, 100 complete control): 90
Plant response rating, Barley [15, 26]: 95
Plant response rating, Barley ([15]; 62 g ai/ha, scale 0 to 100): 100
Plant response rating, Barley ([15]; 125 g ai/ha, scale 0 to 100): 100
Plant response rating, Canarygrass ([16]; 16 g ai/ha, scale 0 to 100): 80
Plant response rating, Canarygrass [16, 26]: 100
Plant response rating, Canarygrass ([16]; 62 g ai/ha, scale 0 to 100): 100
Plant response rating, Canarygrass ([16]; 125 g ai/ha, scale 0 to 100): 100
Plant response rating, Windgrass ([17]; 16 g ai/ha, scale 0 to 100): 100
Plant response rating, Windgrass [17, 26]: 100
Plant response rating, Windgrass ([17]; 62 g ai/ha, scale 0 to 100): 100
Plant response rating, Windgrass ([17]; 125 g ai/ha, scale 0 to 100): 100
